Here are results for 2 molecules from patent US20140371244A1, “METHOD FOR TREATING PROSTATE CANCER BY USE OF PHARMACEUTICAL COMPOSITION CONTAINING A3 ADENOSINE RECEPTOR AGONIST” (priority 2009, published 2014).

Molecules are shown by their SMILES.

Data set [1] deals with human colorectal cancer HCT 116 cells. Kind of data set: Anticancer activity in nude mice transplanted with HCT 116 cells. Type of data set: in vivo, nude mice (Balb/c-nu/nu mice). As to the method: HCT 116 cells were prepared at a concentration of 2×10^6 cells/200 μl (RPMI) and administered subcutaneously into the right frank of 6-week-old female nude mice (Balb/c-nu/nu mice). The tumor size was measured with calipers, and the tumor size reached about 100 mm^3, 20 mice having substantially the same tumor size were divided into a control group and three sample-treated groups. The three sample-treated group were administered orally with IB-MECA at doses of 0.02, 0.2 and 2 mg/kg, respectively, for 21 days. In the control group and the sample-treated groups, the bodyweight was measured once every week, and the tumor size was measured at intervals of 3-4 days. The tumor volume was measured using equation 3 above. In the equation, a represents the longer diameter of the tumor, b represents the shorter diameter of the tumor, and c represents the height of the tumor.
Anticancer activity was measured by an animal test in the same manner as Example 20, except that 6-week-old female nude mice were administered with Cl-IB-MECA in place of IB-MECA as a sample.
Anticancer activity was measured by an animal test in the same manner as Example 20, except that 6-week-old female nude mice were administered with thio-Cl-IB-MECA in place of IB-MECA as a sample.

Data set [2] has the same test system. The experiment in a line: SRB assay, growth of HCT 116 cells. Type of data set: cell-based. The following applies: 72 hours. The method, then: In order to compare the inhibitory effect of thio-Cl-IB-MECA of the present invention on the inhibition of human colorectal cancer HCT 116 cells with the effects of other A3 adenosine receptor agonists, IB-MECA and Cl-IB-MECA, a sulforhodamine B (SRB) assay was performed.
Specifically, 10 μL of a solution of thio-Cl-IB-MECA in 10% dimethylsulfoxide (DMSO) was loaded in each well of a 96-well plate in triplicate at concentrations of 100, 50, 25 and 12.5 μM, thus making a test plate. Cells were diluted to a density of 5×10^4 cells/ml with 10% FBS-containing RPMI 1640 medium supplemented with antibiotics-antimycotics, and 190 μL of the cell suspension was added to each well so as to reach a total volume of 200 μL and was cultured in a 5% CO2 incubator at 37° C. for 3 days. At the same time, 190 μL of the same cell suspension was loaded into each of 16 wells or more of a fresh 96-well plate containing no sample (thio-Cl-IB-MECA) and was cultured in a 5% CO2 incubator at 37° C. for 30 minutes, thereby determining reference date. After the culture, 50 μL of 50% trichloroacetic acid (TCA) was added to each well, and the cells were fixed by culture at 4° C. for 1 hour. Then, the well plate was washed five times with tap water and dried. 100 μL of a 1% acetic acid solution containing […] sulforhodamine B (SRB) was added to each well to stain the cells, and the well plate was allowed to stand at room temperature for 1 hour. After the well plate has been washed five times with 1% acetic acid and sufficiently dried, 200 μL of 100 mM Tris-base was added to each well, and the bound staining liquid was dissolved and sufficiently shaken in a shaker. Then, the absorbance at 515 nm was measured using an ELISA microplate reader. Based on the measured absorbance, the cell viability of the test group relative to the control group was calculated using equation 2 above. Based on the viability at each concentration, the IC50 value of the test sample was calculated using TableCurve program.
In the cases of IB-MECA or Cl-IB-MECA, the viability of cancer cells was examined in the same manner as the case of thio-Cl-IB-MECA.
On the technique in general: The SRB assay estimates cell density from bound dye.

The subject of data set [3] is ICR white mice. Kind of data set: Animal toxicity test, single oral dose. Type of data set: in vivo. To be noted: mouse, in vivo, po. As to the method: In order to examine the toxicities of thio-Cl-IB-MECA and thio-IB-MECA, each of the compounds was administered orally to ICR white mice (n=10, 25 g) at a dose of 1500 mg/kg weight, and the behavioral change and state of the mice were observed.

In data set [4] the test system is prostate cancer cell line PC-3. The experiment in a line: Anticancer activity in PC-3 tumor-transplanted nude mice. Type of data set: in vivo. The following applies: 2 mg/kg orally every day for 35 days. The method, then: Based on the anticancer activity of thio-Cl-IB-MECA against prostate cancer cells, proven by the in vitro test, the anticancer activity of thio-Cl-IB-MECA was measured by an animal test. The prostate cancer cell line PC-3 was transplanted subcutaneously into nude mice, and when the tumor size reached 150-200 mm^3 after 8 days, the drug thio-Cl-IB-MECA (0.02, 0.2 and 2 mg/kg), thio-IB-MECA (2 mg/kg) or IB-MECA (2 mg/kg) was administered orally every day for 35 days. The tumor size was measured at intervals of 3-5 days. The tumor volume was measured using the following equation 3.
Tumor volume=abc×π/6 [Equation 3]
wherein a represents the longer diameter of the tumor, b represents the shorter diameter of the tumor, and c represents the height of the tumor.

For `CNC(=O)[C@H]1O[C@@H](n2cnc3c(NCc4cccc(I)c4)nc(Cl)nc32)[C@H](O)[C@@H]1O` [Cl-IB-MECA], the “inhibition rate of tumor growth” value in data set [1] (0.02 mg/kg orally for 21 days) was 18.2%; in data set [1] (0.2 mg/kg orally for 21 days) it was 43.8%; in data set [1] (2 mg/kg orally for 21 days) it was 67.3%. Further, in data set [1] (0.02, 0.2 and 2 mg/kg orally for 21 days), the “side effects (such as a change in bodyweight) during the test period” value is given as “survived healthfully without particular side effects”. Besides, the “growth of HCT 116 cells” value in data set [2] (100, 50, 25 and 12.5 μM) was “concentration-dependently inhibited the growth”. In addition, half-maximal inhibition in data set [2] (SRB) (IC50) required 19.3 µM.

Regarding `CNC(=O)[C@H]1S[C@@H](n2cnc3c(NCc4cccc(I)c4)ncnc32)[C@H](O)[C@@H]1O` [thio-IB-MECA, N^6-(3-iodobenzyl)-4′-thioadenosine-5′-N-methyluronamide], the “maximum tolerance dose (MTD)” value in data set [3] is listed as “more than 1500 mg/kg”. Moreover, in data set [3] (1500 mg/kg), the “survival and side effects up to 7 days after administration” value was “survived healthfully without particular side effects”. The “tumor production inhibitory activity relative to the control group” value in data set [4] is “about 53.6%”.
